Measured values: US20020160968A1, “Inhibitors of cellular niacinamide mononucleotide formation and their use in cancer therapy” (Klinge Pharma GmbH, priority 1999, published 2002)
Read-outs that look alike come from different tables or passages of the source.

What was measured:
Assay type in all cases: cell-based, human
Hep G2 cells = test: Nicotinamide Reversibility Assay / cell growth inhibition of Hep G2 cells (SRB, six days); conditions: for Reversal by Niacinamide: Hep G2 cell growth inhibition with added nicotinamide; for IC50: Homo sapiens, HepG2, 144 h, read-out: Cell growth inhibition IC50-values [μM] Hep G2
Method: Nicotinamide Reversibility Assay
Hep G2 cells derived from a human liver carcinoma were plated at a density of 20,000 cells/ml in 12-well plastic dishes. Cultivation occurred in Richters IMEM-ZO nutrient medium with 5% fetal calf serum (FCS) in a tissue culture incubator with a gas mixture of 5% CO2 and 95% air at a temperature of 37° C. One day after plating, the culture medium was aspirated from the cells and replaced by fresh medium which contained the respective concentrations of the test compounds and where applicable of the nicotinamide. For the individual concentrations and the controls without test compounds, three-fold batches were done for each. Three days after the beginning of treatment, the medium was again renewed with the test compounds and where applicable the nicotinamide. After six days of compound incubation, the test was ended and the protein amount in the individual wells was determined with the sulforhodamin-B-method (according. to P. Skehan et al.: New Colorimetric Cytotoxicity Assay for Anticancer-Drug Screening. J. Natl. Cancer Inst. 82: 1107-1112, 1990). The IC50-values were taken from the dose-response curves and given as a comparative measurement for the activity of the test compounds.

[1] = tested on: NAD(P) synthesis from niacinamide in HepG2 cells; test: Determination of NAD(P) synthesis from [14C]niacinamide in HepG2 cells
Description: The effect of the compounds on the synthesis of NAD(P) starting from niacinamide was investigated using for example the tumor cell line HepG2 according to the technique described in the experimental part below.
The inhibition of the NAD(P) synthesis from niacinamide by these compounds was investigated in HepG2 cells as described in the section “Material and Methods”. The compounds of Table 3 a were used at a concentration of 10^−5 M. The compounds of Table 3 b were used at concentrations of at least 10^−5 M, except for Doxorubicin where the concentration was 0.3×10^−5 M. As a control, vehicle treated or untreated cells were used.
In these experiments, a pre-incubation period of 17 hrs with the compounds was used, but it turned out that the pre-incubations period could be shortened, for example to 2 hrs, or skipped completely without affecting the inhibition profile. […] Similar results were obtained with the other specific compounds.
For the detection of specific inhibitors of niacinamide mononucleotide formation the following screening assay is especially useful which comprises the following steps: incubating cultured cells selected from HepG2 cells, U-87 MG cells, MCF-7 M1 cells, Caki-1 cells, HL-60 cells, PC3 cells, U-373 MG cells, A549 cells and KG-1a cells in the presence of [^14C]niacinamide and a compound to be tested for its activity to inhibit the cellular formation of niacinamide mononucleotide; effecting lysis of the cells; isolating and separating the [^14C]-labeled compounds and measuring the amount of formed labeled niacinamide mononucleotide, NAD and NADP. More concretely, cultured cells are seeded in a defined density in culture dishes, followed by incubation in the presence of a test compound and by the addition of [^14C]niacinamide for about 0.1 to 6 hrs. The cells are then lysed with perchloric acid and the resulting extract is neutralized. Finally, the [^14C]-labeled compounds are separated by thin-layer chromatography on cellulose matrices followed by UV detection and autoradiography. Non-radioactive niacinamide derivatives are used as standards. This assay allows simple and effective screening and selection of the compounds according to the invention.
Determination of NAD(P) Synthesis from [^14C]Niacinamide
The cells were detached from 75 cm^2 flasks by removing the growth medium and adding 3 ml trypsin/EDTA solution to each flask. After about 5 minutes incubation at 37° C., when the cells were detached from the surface of the dishes, trypsinization was stopped by adding 3 ml Richter's IMEM-ZO medium containing 10% FCS. The cells were suspended by repeated pipetting. For predilution, an aliquot of 20 μl was added to 10 ml Casyton isotonic solution (No. 043-90037P, Schärfe System, Reutlingen, Germany) using a Sysmex Auto Dilutor Type AD-260 (Toa, Medical Electronics Co. Ltd., Kobe, Japan). The cell number was determined by electronic cell volume measurements and counting with a CASY 1 Cell Counter+Analyzer System, Model TTC (Schärfe System, Reutlingen, Germany) equipped with a 60 μm capillary. Following dilution in IMEM-ZO containing 10% FCS, the cells were finally seeded at a density of 4×10^6/10 ml per sample in Ø 10 cm tissue culture dishes (Greiner, Frickenhausen, Germany) and incubated at 37° C. in a humidified atmosphere of 5% CO2 in air.
After one day, when the cells were adherent to the dishes, the cultures were replenished with IMEM-ZO containing 5% FCS plus the test compound or the vehicle. […] The cells were then incubated at 37° C. for 17 hours in a humidified atmosphere of 5% CO2 in air. This preincubation period is not necessary to achieve a distinct inhibitory action of the compounds and can be shortened for example to 2 or 0 hours. After this period of time, the medium was again discarded and 4 ml HEPES-buffered IMEM-ZO containing the test compound or the vehicle and 0.5 μCi/ml [^14C]niacinamide were added to each culture for an additional 5 hours at 37° C. and 100% humidity. […]

HepG2 cells = test: Cell growth under high-density conditions (SRB assay), delayed cell death (DCD); conditions: for Tox. (effective (toxic) concentration) in DCD: toxic compounds, rapid decrease in cell numbers; for Tox. (effective (toxic) concentration) in DCD / minimal effective concentration: high density HepG2 cultures; for minimal effective concentration: Homo sapiens
[2] = Table 3b, at least 10^-5 M, control 374.00
[3] = Table 3b, toxic compounds at at least 10^-5 M, control 531
[4] = Hep G2, six days of compound incubation, SRB
[5] = Homo sapiens, read-out: Cellular NAD synthesis inhibition [%]
[6] = Homo sapiens, Table 3a, compound 10^-5 M, read-out: NAD(P) % of Control
[7] = Table 3a, compound 10^-5 M, 17 hrs pre-incubation, control 302.1
[8] = Table 3a, compound 10^-5 M, control 186.4
[9] = minimum concentration which, despite initial growth, induced cell death below the number of initially seeded cells, Table 2

Row | SMILES | Reversal by Niacinamide (Hep G2 cells) | NAD(P) % of Control ([1]; Table 3b, at least 10^-5 M) [%] | NAD(P) pmol/mg protein [1, 2] [pmol/mg protein] | NAD(P) pmol/10^6 cells [1, 3] [pmol/10^6 cells] | IC50 (Hep G2 cells; [4]) [µM] | inhibition at 10 µM [1, 5] [%] | activity at 10 µM [1, 6] [%] | NAD(P) pmol/10^6 cells [1, 7] [pmol/10^6 cells] | NAD(P) pmol/mg protein [1, 8] [pmol/mg protein] | minimal effective concentration (HepG2 cells; Table 5) [µM] | minimal effective concentration (HepG2 cells; [9]) [µM] | Influence of the addition of nicotinamide on the action on cell growth (FIGS. 20 to 27) (Hep G2 cells; Hep G2) | further results
1 | NC(=O)c1ccc(N)nc1 [6-Aminonicotinamide, reference compound] | yes | 88.0 | 329.34 | 466.98 |  |  |  |  |  |  |  |  | IC50 (Hep G2 cells): 4 µM; inhibition at 30 µM ([1]; Homo sapiens, 30 μM, read-out: Cellular NAD synthesis inhibition [%]): 12%; Tox. (effective (toxic) concentration) in DCD (HepG2 cells): Tox. 10000 μM
2 | S=C(NCCCCCC1CCN(C(c2ccccc2)c2ccccc2)CC1)Nc1cccnc1 [Compound K22234, 1-[5-(1-benzhydryl-piperidine-4-yl)-pentyl]-3-pyridine-3-yl-thiourea] |  |  |  |  | 0.2 | 99 | 1.1 | 3.4 | 2.1 | 0.3 | 0.3 |  | 
3 | COc1cccc2c1C(=O)c1c(O)c3c(c(O)c1C2=O)C[C@@](O)(C(=O)CO)C[C@@H]3O[C@H]1C[C@H](N)[C@H](O)[C@H](C)O1 [Doxorubicin, reference compound] | no |  |  |  | 0.02 |  |  |  |  |  |  | no measurable influence | inhibition at 3 µM ([1]; Homo sapiens, 3 μM, read-out: Cellular NAD synthesis inhibition [%]): 0%; activity at 3 µM ([1]; Homo sapiens, Table 3b, 0.3×10^-5 M, read-out: NAD(P) % of Control): 102%
4 | O=C(NCCCCC1CCN(C(c2ccccc2)c2ccccc2)CC1)NCCc1cccnc1 [Compound K22339, 1-[4-(1-benzhydryl-piperidine-4-yl)-butyl]-3-(2-pyridine-3-ylethyl)-urea] | yes |  |  |  | 0.1 |  | 0.8 | 2.5 | 1.6 | 0.1 | 0.3 | can be antagonized | inhibition at 1 µM ([1]; Homo sapiens, 1 μM, read-out: Cellular NAD synthesis inhibition [%]): 99%; Day on which cell death occurred (HepG2 cells; concentrations of at least 0.3 μM, high density HepG2 culture): 4 days
5 | O=C(NCCCCCCNC(=O)N1CCN(C(c2ccccc2)c2ccccc2)CC1)NCc1cccnc1 [Compound K22132, 4-benzhydryl-piperazine-1-carboxylic acid-[6-(3-pyridine-3-yl-methylureido)-hexyl]-amide] |  |  |  |  | 0.02 | 99 | 1.4 | 4.1 | 2.5 | 0.03 | 0.1 |  | 
6 | O=C(CCCCCN1CCN(C(c2ccccc2)c2ccccc2)CC1)NCCc1cccnc1 [Compound K22265, 6-(4-benzhydryl-piperazine-1-yl)-hexanoic acid-(2-pyridine-3-yl-ethyl)-amide] |  |  |  |  | 2 | 98 | 2.4 | 7.3 | 4.5 | 3 | 3 |  | 
7 | S=C(NCCCCC=C(c1ccccc1)c1ccccc1)N/N=C/c1cccnc1 [Compound K22299, 1-(6,6-diphenyl-5-hexenyl)-3-(pyridine-3-yl-methylene-amino)-thiourea] |  |  |  |  | 0.1 | 99 | 0.5 | 1.6 | 1.0 | 0.3 | 0.3 |  | 
8 | O=C(NCCCCC1CCN(C(c2ccccc2)c2ccccc2)CC1)Nc1cccnc1 [Compound K22130, 1-[4-(1-benzhydryl-piperidine-4-yl)-butyl]-3-pyridine-3-yl-urea] |  |  |  |  | 0.08 |  |  |  |  | 1 | 1 |  | 
9 | [N-]=[N+]=CC(=O)OC[C@H](N)C(=O)O [Azaserine, reference compound] | no | 100.0 | 374.23 | 530.64 | 0.7 | 0 |  |  |  |  |  | no measurable influence | 
10 | NC(=O)c1csc([C@@H]2O[C@H](CO)[C@@H](O)[C@H]2O)n1 [Tiazofurin, reference compound] | no | 78.1 | 292.30 | 414.47 |  |  |  |  |  |  |  | no measurable influence | IC50 (Hep G2 cells): 10 µM; inhibition at 100 µM ([1]; Homo sapiens, 100 μM, read-out: Cellular NAD synthesis inhibition [%]): 22%; Tox. (effective (toxic) concentration) in DCD (HepG2 cells): Tox. 300 μM
11 | [N-]=[N+]=CC(=O)CC[C@H](N)C(=O)O [6-Diazo-5-oxo-L-norleucine, reference compound] | no | 110.5 | 413.55 | 586.39 | 3 | 0 |  |  |  |  |  | no measurable influence | Tox. (effective (toxic) concentration) in DCD (HepG2 cells): Tox. 100 μM
